This passage reports IC50 results from ChEMBL document CHEMBL5241090, “A comprehensive overview of β-carbolines and its derivatives as anticancer agents” (Eur J Med Chem, 2021).

≈ marks a conversion by molar mass, not a printed value.

One experiment has as its system MOLT-4F. Description: Cytotoxicity against human MOLT-4F cells. It counts as functional, cell-based.
The next experiment concerns MT4. The experiment is described as follows: Cytotoxicity against human MT4 cells. Type of experiment: functional, cell-based.
The next experiment relates to L1210. Description: Cytotoxicity against mouse L1210 cells. Type of experiment: functional, cell-based.
The target of experiment [1] is Serine/threonine-protein kinase haspin (Homo sapiens, UniProt Q8TF76). Description: Inhibition of HASPIN (unknown origin).
Sequence of Serine/threonine-protein kinase haspin (Q8TF76 whole entry): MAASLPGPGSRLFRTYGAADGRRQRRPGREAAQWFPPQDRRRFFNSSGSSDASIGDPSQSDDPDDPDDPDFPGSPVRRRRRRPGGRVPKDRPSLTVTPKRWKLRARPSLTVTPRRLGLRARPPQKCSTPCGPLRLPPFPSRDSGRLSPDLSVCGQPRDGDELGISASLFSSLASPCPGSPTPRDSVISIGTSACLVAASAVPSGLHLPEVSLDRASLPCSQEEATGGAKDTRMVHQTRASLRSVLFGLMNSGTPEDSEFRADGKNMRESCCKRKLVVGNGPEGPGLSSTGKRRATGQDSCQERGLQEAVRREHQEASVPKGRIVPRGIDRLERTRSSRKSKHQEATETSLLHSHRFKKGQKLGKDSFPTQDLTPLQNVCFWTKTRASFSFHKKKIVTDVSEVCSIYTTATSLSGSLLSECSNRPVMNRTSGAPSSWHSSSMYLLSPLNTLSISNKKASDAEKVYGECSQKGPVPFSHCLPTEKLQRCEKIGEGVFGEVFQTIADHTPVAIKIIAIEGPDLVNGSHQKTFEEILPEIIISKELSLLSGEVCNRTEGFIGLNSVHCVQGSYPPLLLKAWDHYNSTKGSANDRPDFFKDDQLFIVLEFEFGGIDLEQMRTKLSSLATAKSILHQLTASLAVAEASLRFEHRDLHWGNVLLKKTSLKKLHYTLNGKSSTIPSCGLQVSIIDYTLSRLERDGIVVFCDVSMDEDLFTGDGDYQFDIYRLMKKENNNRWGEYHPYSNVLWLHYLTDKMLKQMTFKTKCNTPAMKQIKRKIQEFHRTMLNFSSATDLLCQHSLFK
The test system of experiment [2] is OVCAR-3. Description: Cytotoxicity against human OVCAR-3 cells by MTT assay. Type of experiment: functional, cell-based. (In general: Formazan colour is commonly taken as a measure of viable cells.)
For experiment [3], the system named is PC-3. The experiment is described as follows: Cytotoxicity against human PC-3 cells by MTT assay. Type of experiment: functional, cell-based.
The test system of another experiment is SW480. Description: Cytotoxicity against human SW480 cells by MTT assay. Type of experiment: functional, cell-based.
The subject of experiment [4] is HCT-116. Description: Cytotoxicity against human HCT-116 cells measured after 48 hrs by MTT assay. It counts as functional, cell-based. The settings on record: HCT-116, 48 h.
The subject of experiment [5] is HepG2. Description: Cytotoxicity against human HepG2 cells measured after 48 hrs by MTT assay. It counts as functional, cell-based. The conditions noted are these: HepG2, 48 h.
Another experiment relates to SMMC-7721. The experiment is described as follows: Cytotoxicity against human SMMC-7721 cells measured after 48 hrs by MTT assay. Type of experiment: functional, cell-based. The conditions noted are these: SMMC-7721, 48 h.
A further experiment has as its system EJ. The experiment is described as follows: Cytotoxicity against human EJ cells measured after 48 hrs by MTT assay. Type of experiment: functional, cell-based.
For experiment [6], the system named is NCI-H460. The experiment is described as follows: Cytotoxicity against human NCI-H460 cells measured after 48 hrs by MTT assay. Type of experiment: functional, cell-based. The conditions noted are these: NCI-H460, 48 h.
Experiment [7] addresses Cyclin-dependent kinase 2/cyclin A (Homo sapiens, UniProt P24941). The experiment is described as follows: Inhibition of CDK2/Cyclin A (unknown origin). It counts as protein-complex assay.
A further experiment concerns SR. The experiment is described as follows: Cytotoxicity against human SR cells. It counts as functional, cell-based.
The subject of experiment [8] is HCT-116. The experiment is described as follows: Cytotoxicity against human HCT-116 cells. It counts as functional, cell-based.
A further experiment relates to RPMI-8226. The experiment is described as follows: Cytotoxicity against human RPMI-8226 cells. It counts as functional, cell-based.
In the next experiment the test system is HaCaT. Description: Antitumor activity against human HaCaT cells assessed as inhibition of cell growth measured after 48 hrs by spectrophotometric analysis. Type of experiment: functional, cell-based.
Another experiment concerns U-251. Description: Antitumor activity against human U-251 cells assessed as inhibition of cell growth measured after 48 hrs by spectrophotometric analysis. It counts as functional, cell-based. The settings on record: U-251, 48 h.
The subject of experiment [9] is NCI-H460. The experiment is described as follows: Antitumor activity against human NCI-H460 cells assessed as inhibition of cell growth measured after 48 hrs by spectrophotometric analysis. Type of experiment: functional, cell-based. The conditions noted are these: NCI-H460, 48 h.
Experiment [10] concerns OVCAR-3. The experiment is described as follows: Antitumor activity against human OVCAR-3 cells assessed as inhibition of cell growth measured after 48 hrs by spectrophotometric analysis. Type of experiment: functional, cell-based. The conditions noted are these: OVCAR-3, 48 h.
For another experiment, the system named is HT-29. The experiment is described as follows: Antitumor activity against human HT-29 cells assessed as inhibition of cell growth measured after 48 hrs by spectrophotometric analysis. It counts as functional, cell-based. The conditions noted are these: HT-29, 48 h.
For experiment [11], the system named is MCF7. The experiment is described as follows: Antitumor activity against human MCF7 cells assessed as inhibition of cell growth measured after 48 hrs by spectrophotometric analysis. Type of experiment: functional, cell-based. The settings on record: MCF7, 48 h.
Another experiment relates to 786-0. The experiment is described as follows: Antitumor activity against human 786-0 cells assessed as inhibition of cell growth measured after 48 hrs by spectrophotometric analysis. The conditions noted are these: 786-0, 48 h. It counts as functional, cell-based.
Experiment [12] has as its system PC-3. Description: Antitumor activity against human PC-3 cells assessed as inhibition of cell growth measured after 48 hrs by spectrophotometric analysis. It counts as functional, cell-based. The settings on record: PC-3, 48 h.
The test system of another experiment is NCI/ADR-RES. Description: Antitumor activity against human NCI-ADR-RES cells assessed as inhibition of cell growth measured after 48 hrs by spectrophotometric analysis. Type of experiment: functional, cell-based.
The subject of a further experiment is RAW264.7. The experiment is described as follows: Cytotoxicity against mouse RAW264.7 cells. It counts as functional, cell-based.
The subject of experiment [13] is HepG2. Description: Cytotoxicity against human HepG2 cells measured after 24 hrs by MTT assay. The settings on record: HepG2, 24 h. Type of experiment: functional, cell-based.
Another experiment concerns HeLa. The experiment is described as follows: Cytotoxicity against human HeLa cells measured after 24 hrs by MTT assay. It counts as functional, cell-based.
Another experiment concerns HL-60. Description: Cytotoxicity against human HL-60 cells. It counts as functional, cell-based. The conditions noted are these: Homo sapiens, HL-60; read-out: IC50.
For a further experiment, the system named is THP-1. Description: Cytotoxicity against human THP-1 cells. It counts as functional, cell-based.
Another experiment has as its system BT-474. The experiment is described as follows: Cytotoxicity against human BT-474 cells. It counts as functional, cell-based.
The subject of another experiment is A549. Description: Cytotoxicity against human A549 cells. Type of experiment: functional, cell-based.
The test system of the next experiment is MOLT-4. Description: Cytotoxicity against human MOLT-4 cells. Type of experiment: functional, cell-based.
Experiment [14] concerns NCI-H460. The experiment is described as follows: Cytotoxicity against human NCI-H460 cells. It counts as functional, cell-based.
The target of experiment [15] is Serine/threonine-protein kinase PLK1 (Homo sapiens, UniProt P53350). Description: Inhibition of PLK1 (unknown origin).
Sequence of Serine/threonine-protein kinase PLK1 (P53350 whole entry): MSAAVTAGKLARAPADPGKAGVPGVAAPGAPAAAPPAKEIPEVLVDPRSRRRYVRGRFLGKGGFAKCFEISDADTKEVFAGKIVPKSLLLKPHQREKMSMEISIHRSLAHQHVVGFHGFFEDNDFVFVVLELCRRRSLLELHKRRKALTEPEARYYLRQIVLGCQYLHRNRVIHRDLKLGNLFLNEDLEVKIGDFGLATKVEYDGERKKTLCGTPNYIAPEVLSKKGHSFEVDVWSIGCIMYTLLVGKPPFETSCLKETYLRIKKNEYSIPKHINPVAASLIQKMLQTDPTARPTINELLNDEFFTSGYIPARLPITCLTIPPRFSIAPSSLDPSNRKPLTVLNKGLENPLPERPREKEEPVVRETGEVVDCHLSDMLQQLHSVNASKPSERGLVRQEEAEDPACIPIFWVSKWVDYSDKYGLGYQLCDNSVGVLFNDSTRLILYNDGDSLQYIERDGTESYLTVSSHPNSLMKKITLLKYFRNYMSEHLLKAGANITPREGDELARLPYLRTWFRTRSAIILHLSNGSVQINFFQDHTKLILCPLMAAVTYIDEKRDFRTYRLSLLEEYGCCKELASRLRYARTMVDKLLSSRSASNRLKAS
Experiment [16] relates to MCF7. Description: Cytotoxicity against human MCF7 cells. Type of experiment: functional, cell-based.
A further experiment concerns HCT-15. The experiment is described as follows: Cytotoxicity against human HCT-15 cells. It counts as functional, cell-based.

As for `COc1ccc2[nH]c3c(c2c1)CCN1OCSC[C@@H](N)C31` (stereo partly specified), the IC50 (commonly the concentration that inhibits the measured activity by half) is 6.2 ng/mL (≈ 0.0203 µM) in the experiment on MOLT-4F, 5 ng/mL (≈ 0.0164 µM) with MT4 and 5 ng/mL (≈ 0.0164 µM) in the experiment on L1210.

Regarding `Cc1nccc2c1[nH]c1cc(O)ccc12`, in experiment [1], it took 770 nM to reach half-maximal inhibition (IC50).

On to `CC(C)OC(=O)c1cc2c([nH]c3ccccc32)c(-c2cccc3ccccc23)n1`, for which the IC50 with OVCAR-3 [2] was determined as 7.5 µM; in the experiment with PC-3 [3] it was 7.1 µM; in the experiment on SW480, 2700 nM.

For the compound `Cc1nc(C(=O)NCCCCNC(=O)c2ccccc2O)cc2c1[nH]c1ccccc12`, the IC50 in the experiment on HCT-116 [4], in the experiment with HepG2 [5], in the experiment with SMMC-7721, in the experiment on EJ and with NCI-H460 [6] was 6.97 µM each time.

On to `CCCC[n+]1ccc2c3ccccc3n(Cc3ccccc3)c2c1-c1ccccc1Cl`, for which the IC50 in experiment [7] was determined as 27 µM.

With `O=C(Cn1c2ccccc2c2ccncc21)N/N=C/c1cccc2ccccc12`, the concentration for half-maximal inhibition (IC50) with SR was 6.3 µM; with HCT-116 [8], 3500 nM; in the experiment on RPMI-8226 it was 7.8 µM.

As for `c1ccc(-c2nc(-c3nnc4snnn34)cc3c2[nH]c2ccccc23)cc1`, the IC50 in the experiment with HaCaT, with U-251, in the experiment with NCI-H460 [9], with OVCAR-3 [10], in the experiment with HT-29 and with MCF7 [11] was 80 nM in each case. The IC50 in the experiment on 786-0, with PC-3 [12] and with NCI/ADR-RES was 80 nM throughout.

In the experiment on RAW264.7, `CN1CCN(C(=O)[C@H]2Cc3c([nH]c4ccccc34)CN2Cc2ccc3ccccc3c2Br)CC1` yielded an IC50 of 18 µM.

As for `COC(=O)c1cc2c([nH]c3ccccc32)c(-c2cccc(OCc3cn(-c4ccc(Cl)c(Cl)c4)nn3)c2)n1`, the results for the IC50 in the experiment with HepG2 [13] and in the experiment on HeLa were 32 µM and 46 µM, respectively.

As to `COc1ccc(-c2nc(C(=O)Nc3nc4ccc([N+](=O)[O-])cc4s3)cc3c2[nH]c2ccccc23)cc1`, the IC50 in the experiment on HL-60, in the experiment on HCT-116 [8], in the experiment on THP-1, in the experiment with BT-474, in the experiment with A549 and with MOLT-4 was 1460 nM in each case. The same compound gave a half-inhibitory concentration (IC50) in the experiment on NCI-H460 [14] of 1460 nM.

`COc1ccc2c3cc[n+](CCCc4ccccc4)c(C)c3n(Cc3cccc(Cl)c3)c2c1` registered an IC50 in experiment [15] of 897 nM.

Consider `COc1ccc(OC)c(-c2nc(/C=C3/C(=O)N(Cc4ccccc4)c4ccc(Br)cc43)cc3c2[nH]c2ccccc23)c1`, for which the IC50 with MCF7 [16], with HCT-116 [8], in the experiment on A549, with HCT-15 and with NCI-H460 [14] was 1430 nM in each case.
